What was measured:
[1] = test system: CHO cell line producing mAb2; assay: Glycosylation profile (UPLC-MS of released glycans) of mAb2 from fed-batch; format: cell-based, Chinese hamster; conditions: mAb2, 400 μM additive, day 12
Method: (§1) Glycosylation patterns were analyzed by ultra-performance liquid chromatography coupled to a mass spectrometer (UPLC-MS). The purified antibody was denaturated and the glycans were released from the antibody by digestion with peptide N-glycosidase F (PNGase F) followed by labeling the glycans with the GlycoWorks™ RapiFluor-MS™ N-Glycan Kit according to the manufacturer protocol. For the analysis, an UPLC glycan column (2.1×150 mm) that separated the glycans according to their […] was used. The chromatography was performed at 45° C. using 50 mM ammonium formate (A), pH 4.4 solution and an acetonitrile (B) gradient. In detail, at the beginning the ratio of A:B was 20:80 (0 min) and changed to 27:73 at 3 min and 37:63 at 35 min at a flow rate of 0.5 ml/min. From 36.5 min to 39.5 min only A was used as mobile phase and the flow rate was reduced to 0.2 ml/min. Subsequently, the ratio was changed to 20% A:80% B and the flowrate was increased to 0.5 ml/min at 43.1 min until the end of the process at 55 min. The detection was performed by a fluorescence detector with an excitation wavelength of 265 nm and an emission wavelength of 425 nm. The identification of the glycan structures was performed by MS using positive electro spray ionization (ESI), which was calibrated every 30 s with a standard.
(§2) Four different clones of Chinese hamster ovary (CHO) cells expressing three different monoclonal antibodies (mAb) and a fusion protein were tested. Cells were cultivated in spin tubes between 14 and 20 days at 37° C., 5% CO2, and 80% humidity. As starting cell density, 3×10^5 cells/mL in 30 mL Cellvento®4CHO media (pH 7.0±0.1) was used for clone 1 and 2 producing mAb1 and mAb2, respectively (Cellvento® Platform). Cells were cultivated at an agitation of 320 rpm and were fed on day 3, 5, 10, 12 and 14 with 3% volume of Cellvento® 4Feed (v/v) and on day 7 with 6% (v/v) of the feed. Clone 3 and 4 producing mAb3 and a fusion protein were inoculated at the same cell density in 30 mL Ex-Cell® Advanced Media (pH 7.2±0.1) while agitation was set to 230 rpm (Ex-Cell® Platform). Clones 3 and 4 were fed with […] Advanced Feed (v/v) on day 3, 5, 7, 10, 12, 14 and 17. […] The pH of all Cellvento® feeds was adjusted to 7.0±0.1 and Ex-Cell® Feeds were adjusted to 8.5±0.1. The glucose level was maintained above 4 g/L by adding a specific amount of a 400 g/L glucose stock solution on demand to up to 6 g/L during the week and up to 13 g/L over the weekend. Glucose and titer were detected in the supernatant with the bioprocess analyzer CEDEX Bio HT (Roche, Mannheim, Germany).
(§3) To investigate the glycosylation profile during the fed-batch experiment samples were centrifugated and antibodies and Fc-fusion proteins were purified from the cell culture supernatant using protein A PhyTips® (PhyNexus Inc, San Jose, Calif.). Glycosylation patterns were analyzed as described by ultra-performance liquid chromatography coupled to a mass spectrometer (UPLC-MS) using the GlycoWorks™ RapiFluor-MS™ N-Glycan Kit.
Glycosylation profile on day 12 was visualized since harvest of recombinant produced proteins on day 12 is common. Quantification of the glycans was obtained using the relative peak area of the fluorescence signal. Almost all peaks were assigned to glycan structures according to their mass. Unknown glycan structures and signals without mass detection were summarized as unknown species (not shown). […]

[2] = test system: CHO cell line producing a fusion protein; assay: Glycosylation profile (UPLC-MS of released glycans) of fusion protein from fed-batch; format: cell-based, Chinese hamster; conditions: 400 μM additive, day 12
Method: as §1, §2, §3
(§4) Glycosylation profile on day 12 was visualized since harvest of recombinant produced proteins on day 12 is common. Quantification of the glycans was obtained using the relative peak area of the fluorescence signal. Almost all peaks were assigned to glycan structures according to their mass. Unknown glycan structures and signals without mass detection were summarized as unknown species (not shown). Four different clones of Chinese hamster ovary (CHO) cells expressing three different monoclonal antibodies (mAb) and a fusion protein were tested. […] The known positive control achieved a 14% fucosylation level on day 12 by increasing the afucosylation to 78%. The same amount of afucosylation compared to the known fucose-analogue acetylated 2F-Fucose was only achieved by clone 3 expressing mAb3 leading to about 34% afucosylation on day 12 (FIG. 8 C).

[3] = test system: CHO cell line producing mAb3; assay: Fed-batch cell performance (viable cell density), clone 3 producing mAb3; format: cell-based, Chinese hamster; conditions: mAb3, feed with 400 μM additive
Method: Four different clones of Chinese hamster ovary (CHO) cells expressing three different monoclonal antibodies (mAb) and a fusion protein were tested. Cells were cultivated in spin tubes between 14 and 20 days at 37° C., 5% CO2, and 80% humidity. As starting cell density, 3×10^5 cells/mL in 30 mL Cellvento®4CHO media (pH 7.0±0.1) was used for clone 1 and 2 producing mAb1 and mAb2, respectively (Cellvento® Platform). Cells were cultivated at an agitation rate of 320 rpm and were fed on day 3, 5, 10, 12 and 14 with 3% volume of Cellvento® 4Feed (v/v) and on day 7 with 6% (v/v) of the feed. Clone 3 and 4 producing mAb3 and a fusion protein were inoculated at the same cell density in 30 mL Ex-Cell® Advanced Media (pH 7.2±0.1) while agitation was set to 230 rpm. Clones 3 and 4 were fed with 5% Ex-Cell® Advanced Feed (v/v) on day 3, 5, 7, 10, 12, 14 and 17. […]
The glucose level was maintained above 4 g/L by adding a specific amount of a 400 g/L glucose stock solution on demand to up to 6 g/L during the week and up to 13 g/L over the weekend. Glucose and titer were detected in the supernatant with the bioprocess analyzer CEDEX Bio HT (Roche, Mannheim, Germany) based on spectrophotometric and turbidometric methods. The viable cell density (VCD) and viability were evaluated with a Vi-CELL™ XR 2.04 cell counter (Beckman Coulter, Fullerton, Calif., USA). […]

[4] = test system: CHO cell line producing mAb1; assay: Glycosylation profile (UPLC-MS of released glycans) of mAb1 from fed-batch; format: cell-based, Chinese hamster; conditions: for fucosylation level / incorporation of the fucose-analogue: mean of day 7, 10 and 12; for reduction of the fucosylation compared to the control: mAb1, same concentration of both additives
Method: as §1, §2, §3
as §4, with “C). […]” for “C).”

FcγRIIIa V176 = assay: Surface plasmon resonance (Biacore) binding of mAb3 from treated cultures to FcγRIIIa; conditions: for Fold change (affinity vs control): mAb3, 400 μM additive; for Kd: mAb3 from culture fed with 400 μM additive
Method: Binding of samples after 5-ThioFuc treatment was investigated by surface plasmon resonance technology using a Biacore T200 system (GE Healthcare, Uppsala, Sweden). The analysis temperature was set to 25° C. and sample compartment temperature to 15° C. […] The anti-His antibody was further used to capture His-tagged FcγRIIIa V176 ([…]) from AcroBiosystems (Newark, Del., USA).
Binding was recorded continuously, while unspecific binding and injection artefacts were subtracted automatically. Single-cycle kinetics were used with a dissociation time of 600 s at a flow rate of 30 μL/min. Data collection rate was performed at 10 Hz. Following each experiment, both flow cells were regenerated for 30 s with 10 mM glycine-HCl pH 1.5 according to kit instructions. Data of three technical and two biological replicates were fitted with a 1:1 binding model. The global dissociation constant KD was determined from the ratio of the kinetic rate constants for dissociation (kd) and association (ka) values. Data are presented in Table 1 as fold change compared to the control.

[5] = test system: CHO cell line producing mAb3; assay: Glycosylation profile (UPLC-MS of released glycans) of mAb3 from fed-batch; format: cell-based, Chinese hamster; conditions: mAb3, 400 μM additive
Method: as §1, §2, §3
as §4, with “C). […]” for “C).”

[6] = day 12, listed as acetylated 2F-Fucose

acetylated 5-Thio-L-Fucose
core-fucosylation [1]: 8%
afucosylation [2]: 52%
incorporation of fucose analogue (% of the glycans) [2]: 39%
reduction of core-fucosylation compared to the control [2]: about 63%
reduced VCD (area under the curve until day 17, compared to the control) [3]: ~24%
fucosylation level ([4]; mAb1, 200 μM additive): 46%
incorporation of the fucose-analogue ([4]; mAb1, 200 μM additive): 50%
core-fucosylated glycans ([4]; mAb1, 400 μM additive, day 12): about 26%
incorporation of fucose analogue (% of the glycans) ([4]; mAb1, 400 μM additive, day 12): about 70%
fucosylation level ([4]; mAb1, 400 μM additive): 16%
incorporation of the fucose-analogue ([4]; mAb1, 400 μM additive): 81%
fucosylation level ([4]; mAb1, 800 μM additive): 9%
incorporation of the fucose-analogue ([4]; mAb1, 800 μM additive): 87%

CC(=O)OC1O[C@@H](C)[C@@H](OC(C)=O)[C@@H](OC(C)=O)[C@@H]1F (stereo partly shown) [2F-Peracetylfucose, reference compound]
afucosylation [1]: 78%
core-fucosylation [1]: 14%
Fold change (affinity vs control) (FcγRIIIa V176; day 5): 1.3 fold
Fold change (affinity vs control) (FcγRIIIa V176; day 12): 3.6 fold
Fold change (affinity vs control) (FcγRIIIa V176; day 14): 4.4 fold
Kd (FcγRIIIa V176; day 5): 78 nM
Kd (FcγRIIIa V176; day 12): 34 nM
Kd (FcγRIIIa V176; day 14): 23 nM
afucosylation [2]: 82%
incorporation of fucose analogue (% of the glycans) [2]: without detectable incorporation
% Afucosylated ([5]; day 5): 14.9%
% fucose analogue (incorporated) ([5]; day 5): 0.3%
% Fucosylated ([5]; day 5, listed as 2F-PerAcFuc): 83.9%
% Fucosylated ([5]; day 5, listed as acetylated 2F-Fucose): about 84%
fucosylation level ([5]; day 7): about 78%
fucosylation level ([5]; day 10): ~72%
% fucose analogue (incorporated) ([5]; day 12): 0.2%
% Afucosylated ([5]; day 12, listed as 2F-PerAcFuc): 34.2%
% Fucosylated ([5]; day 12, listed as 2F-PerAcFuc): 64.8%
% Afucosylated [5, 6]: about 34%
% Fucosylated [5, 6]: 65%
% Afucosylated ([5]; day 14): 40.9%
% fucose analogue (incorporated) ([5]; day 14): 0.12%
% Fucosylated ([5]; day 14, listed as 2F-PerAcFuc): 57.4%
% Fucosylated ([5]; day 14, listed as acetylated 2F-Fucose): ~57%
afucosylation ([4]; mAb1, 400 μM additive, day 12): 60%
core-fucosylated glycans ([4]; mAb1, 400 μM additive, day 12): 36%
reduction of the fucosylation compared to the control ([4]; day 7): 11%
reduction of the fucosylation compared to the control ([4]; day 10): 50%
reduction of the fucosylation compared to the control ([4]; day 12): 58%
